Test results as given in patent US7553979B2, “HSP90-inhibiting zearalanol compounds and methods of producing and using same” (Conforma Therapeutics Corporation, priority 2001, dated 2009).
Read-outs that look alike come from different tables or passages of the source.

Test system: HER2
Test: HER2 inhibition assay (Her-2 degradation by flow cytometry in MCF-7 cells, as manifestation of HSP90 inhibition)
Format: cell-based
Experimental: MCF-7 cells are seeded in 24 well plates at a density of approximately 30,000 cells/well and allowed to grow for 16 hours in DMEM supplemented with 10% FBS. Drug (a compound as specified in Table I) is then added at a concentration range of 100 μM to 0.01 uM. Cells are incubated for an additional […]. Drug treated cells and untreated control cells are trypsinized, and incubated at room temperature for 15 minutes with anti Her-2 neu Ab conjugated with phycoerythrin (Becton Dickinson, San Jose Calif.; Cat no. 340552) at a concentration of 0.25 ug/ml, or non-specific control IgGl conjugated with phycoerytirin (Becton Dickinson, San Jose Calif.; Cat no. 340761). Samples were analyzed using a FACS Calibur flow cytometer (Becton Dickinson) equipped with Argon-ion laser that which emits 15 mW of 488 nm light for excitation of the phycoerythrin fluorochrome. 10,000 events were collected per sample. A fluorescence histogram was generated and the mean fluorescence intensity (mfi) of each sample was determined using Cellquest software. The background was defined as the mfi generated from cells incubated with control IgG, and was subtracted from each sample stained with the HER-2/neu Ab. Percent degradation of Her-2 was calculated as follows: % Her-2 degradation=(mfi HER-2 sample)/(mfi HER-2 untreated cells)×100
Compounds of the following formula (constituents as described in Table I) were acquired from Sigma Aldrich (Milwaukee, Wis.) and evaluated for HSP90 inhibition as manifested by HER2 degradation.
The following compounds were synthesized and evaluated for Her 2 degradation, with the results reflected in Table 3.

[1] = synthesized compounds, Table 3, read-out: IC50 (Her 2 degradation)
[2] = HER2 degradation, commercially acquired compounds (Sigma Aldrich), Table I, read-out: HER2 IC50

| Compound | IC50 [1] [µM] | IC50 [2] [µM] |
| --- | --- | --- |
| COc1cc2c(c(OC(C)=O)c1)C(=O)OCCC/C=C/CCCO2 [Example 5.2, (9E)-1-acetoxy-3-methoxy-6,7,8,11,12,13-hexahydro-5,14-dioxa-benzocyclotridecen-15-one] | 15 | – |
| COc1cc2c(c(OC)c1)C(=O)OC(C)CCC(=O)CCC/C=C/2 (stereo not shown) [Example 6, 2,4-dimethoxy-7-methyl-8,9,12,13-tetrahydro-7H,11H-6-oxa-benzocyclotridecene-5,10-dione] | 90 | – |
| C[C@H]1CCC[C@H](O)CCC/C=C/c2cc(O)cc(O)c2C(=O)O1 [5 (α-zearalenol), α-zearalenol, reference compound] | – | 40 |
| COc1cc(OC(C)=O)c2c(c1C(C)=O)OCCCCC=CCCCCOC2=O [Example 2.2, 1-acetoxy-3-methoxy-4-acetyl-6,7,8,9,12,13,14,15-octahydro-5,16-dioxa-benzocyclopentadecen-17-one] | 40 | – |
| C[C@H]1CCC[C@H](O)CCCCCc2cc(O)cc(O)c2C(=O)O1 [3 (α-zearalanol), α-zearalanol, reference compound] | – | 30 |
| COc1cc(O)c2c(c1)/C=C/CCCC(=O)CCC(C)OC2=O (stereo not shown) [Example 7, 4-hydroxy-2-methoxy-7-methyl-8,9,12,13-tetrahydro-7H,11H-6-oxa-benzocyclotridecene-5,10-dione] | 60 | – |
| C[C@H]1CCC[C@@H](O)CCC/C=C/c2cc(O)cc(O)c2C(=O)O1 [6 (β-zearalenol), β-zearalenol, reference compound] | – | 1 |
| COc1cc(O)c2c(c1)OCCCCC(O)C(O)CCCCOC2=O (stereo not shown) [Example 1] | 30 | – |
| C[C@H]1CCC[C@@H](O)CCCCCc2cc(O)cc(O)c2C(=O)O1 [4 (β-zearalanol), β-zearalanol, reference compound] | – | 4 |
| COc1cc(O)c2c(c1)OCCCC(O)C(O)CCCOC2=O (stereo not shown) [Example 4, 1,9,10-Trihydroxy-3-methoxy-6,7,8,9,10,11,12,13-octahydro-5,14-dioxa-benzocyclotridecen-15-one] | 12 | – |
| COc1cc2c(c(OC(C)=O)c1)C(=O)OCCCCC=CCCCCO2 [Example 2.1, 1-acetoxy-3-methoxy-6,7,8,9,12,13,14,15-octahydro-5,16-dioxa-benzocyclopentadecen-17-one] | 10 | – |
| COc1cc2c(c(OC(C)=O)c1)C(=O)OCCC/C=C\CCCO2 [Example 5.1, (9Z)-1-acetoxy-3-methoxy-6,7,8,11,12,13-hexahydro-5,14-dioxa-benzocyclotridecen-15-one] | 13 | – |
| COc1cc(O)c2c(c1)OCCCCCC(=O)CCCCOC2=O [Example 3.2, 1-Hydroxy-3-methoxy-6,7,8,9,12,13,14,15-octahydro-11H-5,16-dioxa-benzocyclopentadecene-11,17-dione] | 16 | – |
| COc1cc(O)c2c(c1)OCCCCC(=O)CCCCCOC2=O [Example 3.1, 1-hydroxy-3-methoxy-6,7,8,9,12,13,14,15-octahydro-11H-5,16-dioxa-benzocyclopentadecene-10,17-dione] | 30 | – |
| C[C@H]1CCCC(=O)CCCCCc2cc(O)cc(O)c2C(=O)O1 [1 (zearalanone), zearalanone, reference compound] | – | 13 |
| C[C@H]1CCCC(=O)CCC/C=C/c2cc(O)cc(O)c2C(=O)O1 [2 (zearalenone), zearalenone, reference compound] | – | 7 |
